Results: patent US12655116B2, “Substituted isophthalic acid diamides” (Bayer Aktiengesellschaft, priority 2020, dated 2026)

Experiments:
[1] = test system: CYPES; test: Pre-emergence herbicidal action against CYPES; assay type: in vivo; settings: Cyperus esculentus, 504 h; for pest or weed control at 20 g/ha / pest or weed control at 80 g/ha: scored visually after 3 weeks, 100% = plants have died, 0% = like control plants
Text: Seeds of monocotyledonous and dicotyledonous weed plants and crop plants are laid out in sandy loam soil in wood-fiber pots and covered with soil. The compounds of the invention, formulated in the form of wettable powders (WP) or as emulsion concentrates (EC), are then applied to the surface of the covering soil in the form of an aqueous suspension or emulsion at a water application rate equivalent to 600 to 800 l/ha, with addition of 0.2% wetting agent. After the treatment, the pots are placed in a greenhouse and kept under good growth conditions for the trial plants. The damage to the test plants is scored visually after a test period of 3 weeks by comparison with untreated controls (herbicidal activity in percent (%): 100% activity=the plants have died, 0% activity=like control plants). […] The tables below illustrate, in an illustrative manner, the post-emergence herbicidal action of the compounds of the invention, the herbicidal activity being stated in percent.

[2] = test system: CYPES; test: Post-emergence herbicidal action against CYPES; assay type: in vivo, Cyperus esculentus; settings: visual assessment about 3 weeks after treatment, 100% = plants have died, 0% = like control plants
Description: (§1) Seeds of monocotyledonous and dicotyledonous weed and crop plants are laid out in sandy loam soil in wood-fiber pots, covered with soil and cultivated in a greenhouse under good growth conditions. 2 to 3 weeks after sowing, the test plants are treated at the one-leaf stage. The compounds of the invention, formulated in the form of wettable powders (WP) or as emulsion concentrates (EC), are then sprayed onto the green parts of the plants in the form of an aqueous suspension or emulsion at a water application rate equivalent to 600 to 800 l/ha, with addition of 0.2% wetting agent. After the test plants have been left to stand in the greenhouse under optimal growth conditions for about 3 weeks, the action of the preparations is assessed visually in comparison to untreated controls (herbicidal action in percent (%): 100% activity=the plants have died, 0% activity=like control plants). […] The tables below illustrate, in an illustrative manner, the post-emergence herbicidal action of the compounds of the invention, the herbicidal activity being stated in percent.

[3] = test system: PHBPU; test: Pre-emergence herbicidal action against PHBPU; assay type: in vivo, Pharbitis purpurea; settings: Ipomoea purpurea, 504 h; for pest or weed control at 80 g/ha: dosage 80 g/ha; for pest or weed control at 320 g/ha: dosage 320 g/ha
Outline: (§2)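 Visual rating at 3 weeks vs untreated pots; 0–100% scale, 100% = plants died. Treatment: aqueous WP/EC spray onto covering soil, 600–800 l/ha, 0.2% wetter, seeds in sandy loam.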

[4] = test system: VERPE; test: Pre-emergence herbicidal action against VERPE; assay type: in vivo, Veronica persica; settings: Veronica persica, 504 h; for pest or weed control at 80 g/ha: dosage 80 g/ha; for pest or weed control at 320 g/ha: dosage 320 g/ha
Outline: as §2

[5] = test system: MATIN; test: Pre-emergence herbicidal action against MATIN; assay type: in vivo, Matricaria inodora; settings: Tripleurospermum inodorum, 504 h; for pest or weed control at 20 g/ha: dosage 20 g/ha; for pest or weed control at 80 g/ha: dosage 80 g/ha; for pest or weed control at 320 g/ha: dosage 320 g/ha
Outline: as §2

[6] = test system: POLCO; test: Post-emergence herbicidal action against POLCO; assay type: in vivo, Polygonum convolvulus; settings: Fallopia convolvulus, 504 h, dosage 80 g/ha
Outline: (§3)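 Greenhouse pot plants in sandy loam were sprayed at the one-leaf stage, 2 to 3 weeks after sowing, with WP or EC formulations as aqueous suspension or emulsion (600 to 800 l/ha water, 0.2% wetting agent). About 3 weeks later, damage was scored visually against untreated controls as % action (100% = dead, 0% = like control).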

[7] = test system: AVEFA; test: Post-emergence herbicidal action against AVEFA; assay type: in vivo, Avena fatua; settings: Avena fatua, 504 h, visual assessment about 3 weeks after treatment, 100% = plants have died, 0% = like control plants
Outline: as §3

[8] = test system: ECHCG; test: Post-emergence herbicidal action against ECHCG; assay type: in vivo, Echinochloa crus-galli; settings: Echinochloa crus-galli, 504 h; for pest or weed control at 20 g/ha: dosage 20 g/ha; for pest or weed control at 80 g/ha: dosage 80 g/ha
Outline: as §3

[9] = test system: harmful plants; test: Comparative experiments: herbicidal post-emergence action versus compounds known from D1 (WO 2012/028579 A1); assay type: in vivo; parameters: key to Herbicidal action against ALOMY / Herbicidal action against AVEFA / Herbicidal action against LOLRI / Herbicidal action against MATIN / Herbicidal action against HORMU / Herbicidal action against ECHCG / Herbicidal action against SETVI / Herbicidal action against ABUTH / Herbicidal action against STEME / Herbicidal action against VIOTR / Herbicidal action against AMARE: % herbicidal action: 100 = plants died, 0 = like untreated control; settings: 5 g a.i./ha
Description: as §1, with “percent. In the experiments that follow, herbicidal action of numerous inventive compounds and the structurally closest compounds known from D1 (WO 2012/028579 A1) were compared under the above-specified conditions by the pre-emergence and post-emergence method. The example numbers given in the tables relate to the compounds disclosed in the respective documents.” for “percent.”

Structure (SMILES) | pest or weed control at 20 g/ha [1] [%] | pest or weed control at 80 g/ha [1] [%] | pest or weed control at 320 g/ha [1] [%] | Post-emergence action at 80 g/ha against CYPES in % [2] [%] | pest or weed control at 80 g/ha [3] [%] | pest or weed control at 320 g/ha [3] [%] | pest or weed control at 80 g/ha [4] [%] | pest or weed control at 320 g/ha [4] [%] | pest or weed control at 20 g/ha [5] [%] | pest or weed control at 80 g/ha [5] [%] | pest or weed control at 320 g/ha [5] [%] | pest or weed control at 80 g/ha [6] [%] | pest or weed control at 20 g/ha [7] [%] | pest or weed control at 80 g/ha [7] [%] | pest or weed control at 20 g/ha [8] [%] | pest or weed control at 80 g/ha [8] [%] | other results
CNC(=O)c1c(C(F)(F)F)ccc(C(=O)Nc2nnnn2C)c1Cl [Example 1-129] | 90 | 90 | 100 | 80 | 90 | 100 | 100 | 100 | 100 | 100 | 100 | 100 | 100 | 100 | 100 | 100 | pest or weed control at 5 g/ha ([8]; dosage 5 g/ha): 100%; Herbicidal action against ABUTH ([9]; ABUTH): 100; Herbicidal action against ALOMY [9]: 90; Herbicidal action against ECHCG ([9]; ECHCG): 100; Herbicidal action against SETVI [9]: 100; Herbicidal action against STEME ([9]; STEME): 100; Herbicidal action against VIOTR ([9]; VIOTR): 80
Cn1nnnc1NC(=O)c1ccc(C(F)(F)F)c(C(N)=O)c1Cl [Example 1-338] | – | 90 | 100 | 90 | – | 80 | 90 | 100 | – | 80 | 100 | – | 80 | 100 | 90 | 90 | Post-emergence action at 20 g/ha against CYPES in % ([2]; 20 g/ha): 80%
CCn1nnnc1NC(=O)c1ccc(C(F)(F)F)c(C(=O)NC)c1Cl [Example 2-129] | 100 | 100 | 100 | 90 | 90 | 100 | – | 100 | 100 | 100 | 100 | 100 | 100 | 100 | 100 | 100 | pest or weed control at 5 g/ha [7]: 100%; Herbicidal action against ALOMY [9]: 100; Herbicidal action against AMARE ([9]; AMARE): 100; Herbicidal action against AVEFA ([9]; AVEFA): 100; Herbicidal action against HORMU ([9]; HORMU): 80; Herbicidal action against MATIN ([9]; MATIN): 80; Herbicidal action against SETVI [9]: 100
CCn1nnnc1NC(=O)c1ccc(C(F)(F)F)c(C(N)=O)c1Cl [Example 2-338] | – | 90 | 100 | – | – | 80 | 100 | 100 | – | 90 | 100 | – | 80 | 100 | 80 | 100 | –
CCCn1nnnc1NC(=O)c1ccc(C(F)(F)F)c(C(=O)NC)c1Cl [Example 3-129] | – | 100 | 100 | – | 90 | 100 | – | 100 | 90 | 100 | 100 | 90 | 100 | 100 | – | 100 | pest or weed control at 20 g/ha ([3]; dosage 20 g/ha): 80%
CCCn1nnnc1NC(=O)c1ccc(C(F)(F)F)c(C(N)=O)c1Cl [Example 3-338] | – | 90 | 90 | – | – | 100 | 90 | 100 | – | 90 | 100 | – | – | 100 | – | 80 | –
CNC(=O)c1c(C(F)(F)F)ccc(C(=O)Nc2nnc(C)o2)c1Cl [Example 6-116] | 100 | 100 | 100 | – | – | 80 | – | 80 | 90 | 90 | 100 | 80 | 100 | 100 | 100 | 100 | pest or weed control at 5 g/ha [7]: 100%
